Results on 3 compounds are retold here after paper PMC9694897 (Metabolites, 2022).

Data set [1] can be described thus: ABTS free radical scavenging assay. The note with it: read-out: ABTS IC50.
Description: To determine the radical scavenging activity of the compound, we added 3.0 mL of ABTS solution to 300 mL of the compound in a cuvette. By spectrophotometer, we measured the absorbance reduction one minute after the mixing of the solution and continued measuring it for 6 min. For positive control, ascorbic acid is used. We then repeated the assay three times and calculated the percent of inhibition according to the formula [35].
A short description of data set [2]: DPPH free radical scavenging assay. As to the method: Free radicals and 1,1-diphenyl, 2-picrylhydrazyl (DPPH) were used for the illustration of the free radical scavenging ability of the molecule. This assay involved the addition of different dilutions (250, 500 and 1000 μg/mL) of this compound to 0.004% methanolic solution of DPPH. […] Ascorbic acid, in this case, was used as a positive control. The percent activity was calculated according to the formula.
(In general: DPPH is a stable violet radical that fades when it is reduced.)

For data set [3], the system named is carrageenan induced inflammation. As to the kind of experiment: In-vivo carrageenan method of inflammation (paw edema). The note with it: flavone 10 mg/kg, aspirin 100 mg/kg. Details: species or system Albino mice. The text has this: (§1) The Albino mice with an average body weight of 25–30 g were obtained from NIH, Islamabad, Pakistan from our designed studies. The animals were kept in the animal house of the university and were kept under controlled conditions as per the standard guidelines. The animals were used in experiments according to the standard protocols as per the approval of Departmental Ethical Committee with approval letter number DREC-140 [36].
The progression of inflammation stimulated by carrageenan is a biphasic system. In the initial phase the serotonin and histamine were released, while in the second phase of swelling prostaglandin, bradykinin, leukotriene and lysozyme were mediated. The non-steroidal and steroidal drugs can wield their function in the second phase of the edema formation.
In the assay, animals were randomly divided into three groups with eight in each group. The first group, Group I, was the negative control and was given dimethyformamide 1% 10 mL/kg bw. […] The third group (Group III) was given 10 mg/kg bw of the isolated flavone. After ½ h, 1% of the saline solution of carrageenan (w/v, 0.05 mL) was given in a sub-planter area of the animals. Afterwards, the paw edema was determined with the help of a plethysmometer (Model LE 7500 plan. Lab SL) with different time intervals. The paw edema of the mice administered with flavone, and with those of the standard drug, were measured at different time intervals. The measurements of paw edema were compared with the mice serving as the negative control group. The percent inhibition activity was calculated as per the standard procedure.
In general terms: In the carrageenan paw model, swelling and tenderness develop within hours.

Data set [4] deals with 5-LOX. The note with it: read-out: IC50 5-LOX.
Description: Using an established procedure, the 5-lipoxygenase activity was performed. […] Afterwards, the 5-lipoxygenase solution (10,000 Unit/mL) was prepared. Linoleic acid (80 Mm) was the substrate used for the 5-LOX assay. We also prepared phosphate buffer (50 Mm) with PH 6.3. WE dissolved the various concentrations of the compound in each 0.25 mL of phosphate buffer, then added 0.25 mL of lipoxygenase enzyme to it and incubated it at 25 °C for 5 min. […] We repeated this experiment three times. The standard drug used was Zileuton [36]. By using the following equation, percent inhibition was calculated: Percent inhibition=Absorbance of control−absorbance of sample/Absorbance of control×100
Data set [5] has as its system CCl4-induced oxidative stress markers (SOD, CAT, MDA, TP). As to the kind of experiment: In-vivo antioxidant markers in CCl4-induced oxidative stress. Further details: species or system Albino mice. The note with it: CCl4 treated mice.
Description: as §1
In this assay, the experimental animals were divided into four groups with five animals in each group. Group I was given the corn oil as a vehicle. The remaining three groups ([…]) were given CCl4 in corn oil in a ratio of 1 to 5 (v/v) for the induction of oxidative stress. The two groups were given 5 and 10 mg/kg bw of the isolated flavone for two weeks. One day after the last administration, the animals were given IM zoletil50 (30 mg/kg bw) with xylazine (5 mg/kg bw) for about 10 min to get anesthetized. Afterwards, the blood sample was taken out by cardiac puncture into EDTA-tubes. After the experiments, the animals were euthanized as per the standard procedure. The blood (200 μL) was centrifuged for 10 min at the rate of 3000 rpm. The plasma was used for the biochemical studies. Afterwards, 0.9% of physiological saline was added to the cellular layer to double up the volume. Again, it was centrifuged under the same set of conditions and the upper layer was discarded. The experiments were repeated three times and erythrocytes were isolated. The isolated erythrocytes were stored at a low temperature (−20 °C). The vital organs like kidneys, liver and heart were harvested, washed and weighted.
The RBCs were employed in a cellular model to evaluate the potency of antioxidants to penetrate into the living cells from plasma.
The superoxide dismutase assay was performed as per the reported procedure. […] The reaction was initiated with the addition of adrenaline (0.3 mM, 0.3 mL) to the buffered mixture. This was mixed immediately and was subjected to a spectrophotometer as a sample cuvette. The solution of buffer (2.5 mL), substrate (0.3 mL) and distilled water (0.2 mL) were added in the reference cuvette. The increase in absorbance (480 nm) was monitored for 2.5 min with 30 sec intervals against a blank. The SOD was calculated as per the reported procedure.
The catalase assay on the isolated compound was performed as per the standard protocols. […] To each of these test tubes, potassium dichromate was added. The tubes were heated for 10 min up to 100 °C. The tubes were then allowed to cool down and optical density was measured at 570 nm. The standard curve of concentration vs. absorbance of H2O2 was plotted. Afterwards, haemolysate (1 mL) was diluted and added to the test tube containing H2O2 (2 mL) and phosphate buffer (2.5 mL, 0.01 M having pH 7.0) and were mixed. After every 30 sec, one ml of solution was withdrawn and was transferred to acidified potassium dichromate (2 mL) for 2 min. This was mixed and heated up to 100 °C for 10 min. The solution was then cooled down and optical density was measured (at 570 nm) against the blank. The catalase activity was calculated as per the standard method.
The lipid peroxidation was performed with malondialdehyde assay as per the reported methods. The diluted haemolysate (0.4 mL, 1:10 v/v) was added to the test tube containing acetic acid sodium hydroxide along with thiobarbituric acid, having a volume of 2 mL each. […] The activity was then calculated as per the standard method.
The total proteins assay of the experiment was performed as per the standard method. The diluted haemolysate (0.2 mL), bovine albumin (0.2 mL, 2 g/dl), distilled water (2 mL) and working reagent 1 mL (CuSO4 with NaK one part and Na2CO3 with NaOH 100 parts) were added in different test tubes. This was mixed and incubated at room temperature for 10 min. […] The absorbance was measured at 570 nm against the blank.

Data set [6] is described as follows: Acute toxicity. The conditions noted are these: mice, 25-2000 mg/kg b. wt, monitored 3 days.
Description: as §1

The target of data set [7] is T1, eqBChE (Equus caballus, UniProt P81908).
T1 construct: The butyrylcholinesterase (BChE) is obtained from equine serum; from tissue; host or cells: equine serum
As to the kind of experiment: Anti-cholinesterase assay (DTNB, spectrophotometric), BChE. The class given is biochemical, equine. The text has this: (§2) For the determination of anti-cholinesterase activity of the compounds, the acetylcholinesterase enzymes used were obtained from an electric eel. The butyrylcholinesterase (BChE) is obtained from equine serum. The principle of this assay is based on the hydrolysis of […] by the enzymes AChE and the hydrolysis of butyrylcholine iodide by the enzyme butyrylcholinesterase. This process of hydrolysis yields 5-thio-2-nitrobenzoate anion which then form a complex with DTNB (yellow color) which can be detected by spectrophotometer.
(§3) Then KOH was used for the adjustment of pH.
(§4) In each of these enzyme assays, the enzyme solution (5 μL) was added to the cuvette followed by the addition of the compound (205 μL), and finally DTNB reagents (5 μL) were added. The solution was maintained in a water bath at a temperature of 30 °C for 15 min, and then the substrate solution (5 μL) was added. […] The negative control consists of all the components except the compound. […] The absorbance, as well as the reaction time, were taken for 4 min at a temperature of 30 °C and were repeated in triplicate.

For data set [8], the target named is T2, eeAChE (Electrophorus electricus, UniProt O42275).
T2 construct: the acetylcholinesterase enzymes used were obtained from an electric eel; from tissue; host or cells: electric eel
Briefly: biochemical.
Description: as §2, §3, §4

In data set [9] the target is T3, Human recombinant MAO-B (Homo sapiens, UniProt P27338).
T3 sequence (P27338 1-520): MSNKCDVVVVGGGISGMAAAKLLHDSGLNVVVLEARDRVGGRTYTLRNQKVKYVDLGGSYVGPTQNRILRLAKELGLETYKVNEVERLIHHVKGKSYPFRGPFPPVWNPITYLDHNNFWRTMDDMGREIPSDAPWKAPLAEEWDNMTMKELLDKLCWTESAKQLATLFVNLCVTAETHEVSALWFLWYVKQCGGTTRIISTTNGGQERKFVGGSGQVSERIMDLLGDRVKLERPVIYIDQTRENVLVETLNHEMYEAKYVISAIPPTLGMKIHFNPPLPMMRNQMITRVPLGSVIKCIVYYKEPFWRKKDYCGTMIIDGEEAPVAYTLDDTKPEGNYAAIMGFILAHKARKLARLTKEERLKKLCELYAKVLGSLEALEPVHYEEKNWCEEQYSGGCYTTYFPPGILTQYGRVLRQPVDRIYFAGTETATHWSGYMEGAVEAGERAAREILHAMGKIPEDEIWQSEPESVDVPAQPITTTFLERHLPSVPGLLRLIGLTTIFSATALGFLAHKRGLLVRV
As to the kind of experiment: MAO-B inhibition assay (Amplex Red).
Description: Human recombinant MAO-B enzymes used in this assay were obtained from insect cells. The substrate used for MAO-B enzyme is benzylamine hydrochloride. For all the enzymes reactions, as well as for dilutions sodium phosphate buffer (0.05 M), a PH of 7.4 is used. […] The activity of the test compound hMAO-B assay is determined by calculating its effect on H2O2 production from benzylamine while using an Amplex Red MAO assay kit (Invitrogen). In this assay, a volume of 0.1 mL sodium phosphate buffer (0.05 M) with a PH of 7.4, which contains different concentrations of the test compound (reference inhibitors or new compound) and a sufficient quantity of recombinant hMAO-B (0.5 μL, 71 Unit/mg) is incubated at 37 °C for 1 h in a 96-well plate. After incubating, the reaction was initiated by the addition of (final concentration) 200 μM Amplex Red reagent, 1 mM benzylamine hydrochloride and 1 Unit/mL horseradish peroxidase. The H2O2 production, and finally resorufin, was measured in a multi-detection microplate fluorescence reader (TECAN) at 37 °C and with an absorbance of 570 nm. […] Then, specific fluorescence absorbance was determined after subtracting the background activity, measured from the vials which contains all the components except hMAO-B, and was replaced by buffer solution [34].

The target in data set [10] is T4, COX-2 (Homo sapiens, UniProt P35354).
T4 sequence (P35354 18-604): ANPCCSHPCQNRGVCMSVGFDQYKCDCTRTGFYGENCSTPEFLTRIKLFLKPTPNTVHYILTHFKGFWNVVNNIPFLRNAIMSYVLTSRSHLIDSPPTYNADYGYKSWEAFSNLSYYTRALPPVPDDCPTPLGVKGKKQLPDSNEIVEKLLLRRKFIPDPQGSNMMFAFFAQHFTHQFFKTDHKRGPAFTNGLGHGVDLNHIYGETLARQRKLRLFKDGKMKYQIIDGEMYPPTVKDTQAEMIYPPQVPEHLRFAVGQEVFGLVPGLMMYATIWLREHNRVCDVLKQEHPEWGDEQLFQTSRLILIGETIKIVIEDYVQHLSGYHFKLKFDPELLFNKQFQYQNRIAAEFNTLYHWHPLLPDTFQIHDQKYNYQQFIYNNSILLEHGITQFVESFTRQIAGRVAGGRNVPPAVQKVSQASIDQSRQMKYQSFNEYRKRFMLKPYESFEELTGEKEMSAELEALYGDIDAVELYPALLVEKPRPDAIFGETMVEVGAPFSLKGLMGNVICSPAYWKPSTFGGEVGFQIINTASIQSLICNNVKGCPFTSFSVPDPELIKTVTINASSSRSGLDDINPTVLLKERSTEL
As to the kind of experiment: biochemical.

T1 sequence (P81908 whole entry): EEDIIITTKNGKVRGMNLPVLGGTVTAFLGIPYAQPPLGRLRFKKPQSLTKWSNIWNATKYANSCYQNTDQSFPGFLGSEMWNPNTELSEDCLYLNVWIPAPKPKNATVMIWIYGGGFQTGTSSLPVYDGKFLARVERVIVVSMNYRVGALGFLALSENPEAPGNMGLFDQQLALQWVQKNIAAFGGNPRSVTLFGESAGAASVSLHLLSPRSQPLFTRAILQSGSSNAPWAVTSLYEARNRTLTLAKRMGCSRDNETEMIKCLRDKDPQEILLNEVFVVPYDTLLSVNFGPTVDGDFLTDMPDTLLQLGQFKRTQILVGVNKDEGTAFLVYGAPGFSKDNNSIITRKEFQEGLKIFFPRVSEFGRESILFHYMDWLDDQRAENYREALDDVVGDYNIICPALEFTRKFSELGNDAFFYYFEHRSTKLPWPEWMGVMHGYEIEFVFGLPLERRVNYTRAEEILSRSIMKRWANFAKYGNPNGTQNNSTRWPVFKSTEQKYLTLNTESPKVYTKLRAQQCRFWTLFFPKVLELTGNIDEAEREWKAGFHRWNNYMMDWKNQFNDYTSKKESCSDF
T2 sequence (O42275 24-633): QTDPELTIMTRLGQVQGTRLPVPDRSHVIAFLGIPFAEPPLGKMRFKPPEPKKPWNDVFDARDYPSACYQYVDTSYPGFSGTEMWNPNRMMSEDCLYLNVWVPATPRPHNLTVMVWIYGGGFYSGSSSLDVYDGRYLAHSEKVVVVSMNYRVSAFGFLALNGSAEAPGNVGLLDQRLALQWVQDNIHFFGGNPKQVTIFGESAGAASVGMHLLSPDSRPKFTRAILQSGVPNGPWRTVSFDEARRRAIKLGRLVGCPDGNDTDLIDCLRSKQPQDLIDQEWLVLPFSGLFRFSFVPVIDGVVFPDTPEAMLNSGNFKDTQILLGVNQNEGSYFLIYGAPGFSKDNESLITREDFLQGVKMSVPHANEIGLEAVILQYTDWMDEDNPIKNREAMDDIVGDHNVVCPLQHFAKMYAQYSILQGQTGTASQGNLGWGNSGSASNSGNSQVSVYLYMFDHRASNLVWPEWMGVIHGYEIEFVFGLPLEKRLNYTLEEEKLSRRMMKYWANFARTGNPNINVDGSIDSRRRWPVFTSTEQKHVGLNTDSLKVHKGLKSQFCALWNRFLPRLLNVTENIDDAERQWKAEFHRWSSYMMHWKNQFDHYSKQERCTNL

As a reminder, the IC50 is the concentration that inhibits the measured activity by half. Consider `C[C@H]1O[C@H](O[C@H]2[C@H](O)[C@@H](O)[C@@H](O[C@H]3[C@H](O)[C@@H](O)C(O)O[C@@H]3CO)O[C@@H]2CO)[C@H](O)[C@@H](O)[C@@H]1N[C@H]1C=C(CO)[C@@H](O)[C@H](O)[C@H]1O` (some centres unmarked) [Acarbose, reference compound], for which the IC50 in data set [1] was 12.7 µM; in data set [2], 16 µM.

Consider `CC(=O)Oc1ccccc1C(=O)O` [Aspirin, reference compound], for which the “percent inhibition of paw edema” value in data set [3] (fifth h) came out at 57.64%; in data set [3] (first hour) it was 47.54%; in data set [3] (fourth h), 56.92%; in [3] (second hour), 54.63%; in data set [3] (third h), 53.26%.

For the compound `COc1ccc(-c2oc3cc(O)ccc3c(=O)c2O)cc1OC` [Isolated flavone, 2-(3,4-dimethoxyphenyl)-3,7-dihydroxy-4H-chromen-4-one], the IC50 in data set [4] was 0.84 ± 0.13 µM; in data set [1], 33.4 µM; in [2] it was 44.3 µM; in data set [7], 0.95 ± 0.04 µM; in data set [8], 1.37 ± 0.01 µM; in data set [9], 0.14 ± 0.01 µM. The same compound showed an IC50 in [10] of 0.38 ± 0.12 µM. Further, the MDA blood levels worked out at 1.15 ± 0.05 µmol/L in data set [5] (5 mg/kg for two weeks) and 1.05 ± 0.03 µmol/L in data set [5] (10 mg/kg for two weeks). Also, the entries for the “SOD blood levels (second mention)” value in data set [5] (5 mg/kg for two weeks) and in [5] (10 mg/kg for two weeks) were 0.12 ± 0.02 UL/mg and 0.12 ± 0.32 UL/mg, respectively. The results for the SOD levels in [5] (5 mg/kg for two weeks) and in [5] (10 mg/kg for two weeks) were 8.52 ± 0.51 UL/mg and 9.58 ± 0.41 UL/mg, respectively. In addition, the TP levels result in [5] (treated groups versus CCl4 group) is “significantly changed”. Further, in [6], the “safety in animals (acute toxicity)” value is on record as “safe”. For the same compound, the SI in [7] amounted to 1.44. For the same compound, the “percent inhibition of paw edema” value in [3] (fifth h) came to 45%; in data set [3] (first hour), 45%; in data set [3] (fourth h) it was 49%; in [3] (second hour) it was 47%; in [3] (third h), 42%. The “SI (COX-2 selectivity)” value in data set [10] is given as 18.70.
